According to publication PMC6199744, “Development of Chemical Proteomics for the Folateome and Analysis of the Kinetoplastid Folateome” (ACS Infectious Diseases, 2018):

Test system: L. major lysate proteins
Experiment: Multitargeted bead mixture chemoproteomics, single concentration competition, proteome-wide
Type: binding
Conditions: for fold change / fold change relative to vehicle control: vehicle control = 1; for fold change relative to vehicle control: competition with free ligand

SMILES: CCCCCCOc1ccc(Cc2cnc(N)nc2N)cc1 [compound 1]
- fold change (protein LMJF.22.1460 I/6 AUTOANTIGEN-LIKE PROTEIN): 0.95
- fold change vs vehicle control (protein LMJF.22.1540 ALANYL-TRNA SYNTHETASE, PUTATIVE): 0.85
- fold change vs vehicle control (protein LMJF.23.0370 […] OXIDASE SUBUNIT 10, PUTATIVE): 1.08
- fold change (protein LMJF.23.0830 NA/H ANTIPORTER-LIKE PROTEIN): 0.89
- fold change (protein LMJF.23.1020 HYPOTHETICAL PROTEIN, UNKNOWN FUNCTION): 0.87
- fold change (protein LMJF.23.1220 T-COMPLEX PROTEIN 1, GAMMA SUBUNIT, PUTATIVE): 1.03
- fold change vs vehicle control (protein LMJF.24.0140 ANKYRIN/TPR REPEAT PROTEIN): 1.09
- fold change (protein LMJF.24.0280 DYNEIN INTERMEDIATE-CHAIN-LIKE PROTEIN): 0.97
- fold change (protein LMJF.24.0770 MALIC ENZYME, PUTATIVE): 0.95
- fold change relative to vehicle control (protein LMJF.24.1510 IGE-DEPENDENT HISTAMINE-RELEASING FACTOR, PUTATIVE): 1.09
- fold change vs vehicle control (protein LMJF.24.1630, SUCCINATE DEHYDROGENASE FLAVOPROTEIN, PUTATIVE): 0.9
- fold change vs vehicle control (protein LMJF.24.1840 LYSOPHOSPHOLIPASE, PUTATIVE): 1.07
- fold change relative to vehicle control (protein LMJF.24.2060 TRANSKETOLASE): 0.84
- fold change (protein LMJF.24.2250 FATTY-ACID DESATURASE, PUTATIVE): 1.09
- fold change vs vehicle control (protein LMJF.25.0120 ELECTRON TRANSFER FLAVOPROTEIN, PUTATIVE): 1.75
- fold change vs vehicle control (protein LMJF.25.0260 DYNEIN LIGHT CHAIN 1, CYTOPLASMIC, PUTATIVE): 0.91
- fold change relative to vehicle control (protein LMJF.25.0910 C[…]): 1.46
- fold change vs vehicle control (protein LMJF.25.1180, ATPASE BETA SUBUNIT, PUTATIVE): 1.06
- fold change (protein LMJF.25.1610 HYPOTHETICAL PROTEIN, CONSERVED): 0.79
- fold change (protein LMJF.25.1620 HY[…], CONSERVED): 1.11
- fold change vs vehicle control (protein LMJF.26.1240 HEAT SHOCK PROTEIN 70-RELATED PROTEIN): 1.01
- fold change vs vehicle control (protein LMJF.26.1710 […] OXIDASE SUBUNIT V, PUTATIVE): 1.04
- fold change vs vehicle control (protein LMJF.26.1960 HY[…], CONSERVED): 1.01
- fold change vs vehicle control (protein LMJF.26.2000 HY[…], CONSERVED): 1.05
- fold change vs vehicle control (protein LMJF.27.0420 RIBOKINASE, PUTATIVE): 1.05
- fold change vs vehicle control (protein LMJF.27.1060 CYSTEINE DESULFURASE, PUTATIVE): 0.97
- fold change (protein LMJF.27.1310 ARGINYL-TRNA SYNTHETASE, PUTATIVE): 1.05
- fold change vs vehicle control (protein LMJF.27.2400 HEAT SHOCK PROTEIN DNAJ, PUTATIVE): 0.91
- fold change vs vehicle control (protein LMJF.28.0110 […] 3 SUBUNIT, PUTATIVE): 1.04
- fold change vs vehicle control (protein LMJF.28.0930 HYPOTHETICAL PROTEIN, CONSERVED): 1
- fold change vs vehicle control (protein LMJF.28.0950 HY[…], CONSERVED): 1.07
- fold change vs vehicle control (protein LMJF.28.1950 X-PRO, DIPEPTIDYL-PEPTIDASE,SERINE PEPTIDASE, CLAN SC, FAMILY S15, PUTATIVE): 0.94
- fold change relative to vehicle control (protein LMJF.28.2770 HEAT-SHOCK PROTEIN HSP70, PUTATIVE): 1.15
- fold change (protein LMJF.29.0060 TRYPTOPHANYL-TRNA SYNTHETASE, PUTATIVE): 1
- fold change (protein LMJF.29.0820 CYSTEINE PEPTIDASE C (CPC)): 0.78
- fold change relative to vehicle control (protein LMJF.29.0850 HIGH MOBILITY GROUP PROTEIN HOMOLOG TDP-1, PUTATIVE): 1.77
- fold change vs vehicle control (protein LMJF.29.1160 TRYPAREDOXIN): 1
- fold change (protein LMJF.29.1760 PARAFLAGELLAR ROD PROTEIN 1D, PUTATIVE): 0.77
- fold change vs vehicle control (protein LMJF.29.1780 DIPHTHAMIDE SYNTHESIS PROTEIN, PUTATIVE): 0.62
- fold change vs vehicle control (protein LMJF.29.2240 AMINOPEPTIDASE, PUTATIVE): 0.98
- fold change (protein LMJF.29.2310 ENOYL-COA HYDRATASE/ISOMERASE-LIKE PROTEIN): 0.95
- fold change (protein LMJF.29.2860 40S RIBOSOMAL PROTEIN S19-LIKE PROTEIN): 1.25
- fold change vs vehicle control (protein LMJF.30.0850 SURFACE PROTEIN AMASTIN, PUTATIVE): 0.97
- fold change (protein LMJF.30.1250 PYRIDOXAL KINASE, PUTATIVE): 1.06
- fold change (protein LMJF.30.2580 RETICULON DOMAIN PROTEIN, 22 KDA POTENTIALLY AGGRAVATING PROTEIN (PAPLE22)): 1.3
- fold change vs vehicle control (protein LMJF.30.3190 3-HYDROXY-3-METHYLGLUTARYL-COA REDUCTASE): 0.77
- fold change vs vehicle control (protein LMJF.30.3520 S-ADENOSYL[…]): 1.09
- fold change vs vehicle control (protein LMJF.31.0440 CYTOSKELETON-[…] CAP5 5, PUTATIVE): 0.82
- fold change (protein LMJF.31.1130 N-ACYL-L-AMINO ACID AMIDOHYDROLASE, PUTATIVE): 0.74
- fold change vs vehicle control (protein LMJF.31.1640 THIOLASE PROTEIN-LIKE PROTEIN): 1.14
- fold change (protein LMJF.31.1800 AMINO ACID PERMEASE): 1.07
- fold change (protein LMJF.31.2250 3,2-TRANS-ENOYL-COA ISOMERASE, MIT[…], PUTATIVE): 0.85
- fold change vs vehicle control (protein LMJF.31.2790 ADP-RI[…], PUTATIVE): 1.12
- fold change (protein LMJF.31.3130 METHYLCROTONOYL-COA CARBOXYLASE BIOTINYLATED SUBUNITPROTEIN-LIKE PROTEIN): 0.91
- fold change (protein LMJF.32.0010 HYPOTHETICAL PROTEIN, CONSERVED): 0.92
- fold change vs vehicle control (protein LMJF.32.0400 ATP-DEPENDENT RNA HELICASE, PUTATIVE): 1
- fold change vs vehicle control (protein LMJF.32.0520 PROFILIN, PUTATIVE): 0.98
- fold change (protein LMJF.32.1000 CHAPERONIN CONTAINING T-COMPLEX PROTEIN, PUTATIVE): 0.99
- fold change vs vehicle control (protein LMJF.32.3010 HY[…], CONSERVED,LEUCINE-RICH REPEAT PROTEIN, PUTATIVE): 1.06
- fold change vs vehicle control (protein LMJF.32.3870 MYOSIN XXI): 0.77
- fold change vs vehicle control (protein LMJF.33.0890, HYPOTHETICAL PROTEIN, CONSERVED): 1.1
- fold change vs vehicle control (protein LMJF.33.1070 HYPOTHETICAL PROTEIN, UNKNOWN FUNCTION): 0.91
- fold change (protein LMJF.33.1330 CYSTEINE CONJUGATE BETA-LYASE, AMINOTRANSFERASE- LIKE PROTEIN): 1.04
- fold change (protein LMJF.33.1610 PEPTIDASE M20/M25/M40, PUTATIVE): 0.82
- fold change relative to vehicle control (protein LMJF.33.1630 CYCLOPHILIN 4, PUTATIVE): 1.08
- fold change vs vehicle control (protein LMJF.33.2300 UDP-GLC 4'-EPIMERASE, PUTATIVE): 1.07
- fold change vs vehicle control (protein LMJF.33.2390 HEAT SHOCK PROTEIN, PUTATIVE): 1.41
- fold change (protein LMJF.33.2410 HYPOTHETICAL PROTEIN, CONSERVED): 0.95
- fold change (protein LMJF.33.3150 40S RIBOSOMAL PROTEIN S13, PUTATIVE): 1.11
- fold change (protein LMJF.34.3500 RUVB-LIKE 1 DNA HELICASE, PUTATIVE): 0.93
- fold change (protein LMJF.34.3670 VACUOLAR ATP SYNTHASE CATALYTIC SUBUNIT A, PUTATIVE): 1.02
- fold change (protein LMJF.34.3740 SERINE PALMITOYLTRANSFERASE-LIKE PROTEIN): 0.91
- fold change (protein LMJF.34.4120 HYPOTHETICAL PROTEIN, CONSERVED): 0.82
- fold change vs vehicle control (protein LMJF.34.4370 20S PROTEASOME BETA 7 SUBUNIT, (PUTATIVE)): 0.95
- fold change (protein LMJF.35.0370 ATP-DEPENDENT DEAD-BOX RNA HELICASE, PUTATIVE): 1.01
- fold change vs vehicle control (protein LMJF.35.1380, MITOCHONDRIAL PROCESSING PEPTIDASE, BETA SUBUNIT, PUTATIVE): 0.97
- fold change vs vehicle control (protein LMJF.35.1410 THREONYL-TRNA SYNTHETASE, PUTATIVE): 0.94
- fold change vs vehicle control (protein LMJF.35.1720 CYCLOPHILIN 14, PUTATIVE): 1.02
- fold change (protein LMJF.35.2500 HYPOTHETICAL PROTEIN, CONSERVED): 0.72
- fold change (protein LMJF.35.2730 ACYL-COA DEHYDROGENASE, PUTATIVE): 0.86
- fold change relative to vehicle control (protein LMJF.35.3010 […],TRYPANOTHIONE-DEPENDENT […]): 1.13
- fold change vs vehicle control (protein LMJF.35.3100 ATP-DEPENDENT RNA HELICASE, PUTATIVE): 0.99
- fold change vs vehicle control (protein LMJF.35.3340 6-phosphogluconate dehydrogenase): 1.08
- fold change (protein LMJF.35.3700 GIM5A PROTEIN, PUTATIVE,GLYCOSOMAL MEMBRANE PROTEIN): 0.94
- fold change vs vehicle control (protein LMJF.35.3840, […] 2 SUBUNIT, PUTATIVE): 1.01
- fold change vs vehicle control (protein LMJF.35.3860 T-COMPLEX PROTEIN 1, ETA SUBUNIT, PUTATIVE): 0.99
- fold change (protein LMJF.35.4550 HYPOTHETICAL PROTEIN, CONSERVED): 0.97
- fold change (protein LMJF.35.4770 CYCLOPHILIN 40): 1.17
- fold change (protein LMJF.35.4850 PROTEASOME ALPHA 1 SUBUNIT, PUTATIVE): 0.91
- fold change (protein LMJF.35.4860 HYPOTHETICAL PROTEIN, CONSERVED): 0.85
- fold change relative to vehicle control (protein LMJF.35.5330 ISOPENTENYL-DIPHOSPHATE DELTA-ISOMERASE, PUTATIVE,ISOMERASE, PUTATIVE): 1.62
- fold change vs vehicle control (protein LMJF.36.0180 […] 2): 1.03
- fold change vs vehicle control (protein LMJF.36.0620 HY[…], CONSERVED): 1.34
- fold change vs vehicle control (protein LMJF.36.0990 40S RIBOSOMAL PROTEIN S10, PUTATIVE): 1.1
- fold change vs vehicle control (protein LMJF.36.2020 CHAPERONIN HSP60, MITOCHONDRIAL PRECURSOR): 0.95
- fold change vs vehicle control (protein LMJF.36.3460 HYPOTHETICAL PROTEIN, CONSERVED): 0.82
- fold change (protein LMJF.36.3760 60S RIBOSOMAL PROTEIN L10A, PUTATIVE): 1.26
- fold change vs vehicle control (protein LMJF.36.3840 GLYCYL TRNA SYNTHETASE, PUTATIVE): 0.85
- fold change vs vehicle control (protein LMJF.36.4170 OXIDOREDUCTASE, PUTATIVE): 0.84
- fold change vs vehicle control (protein LMJF.36.5010 40S RIBOSOMAL PROTEIN SA, PUTATIVE): 1.09
- fold change (protein LMJF.36.5390 PHOSPHORIBOSYLPYROPHOSPHATE SYNTHETASE, PUTATIVE): 0.86
- fold change vs vehicle control (protein LMJF.36.5620 ISOLEUCYL-TRNA SYNTHETASE, PUTATIVE): 0.97
- fold change vs vehicle control (protein LMJF.36.6430 PROTEIN TRANSPORT PROTEIN SEC23-LIKE PROTEIN): 0.85
- fold change (protein LMJF.36.6760 HY[…], CONSERVED): 1.01
- fold change vs vehicle control (protein LMJF.36.6910 T-COMPLEX PROTEIN 1, THETA SUBUNIT, PUTATIVE): 1
- fold change vs vehicle control (protein LMJF.36.6940 disulfide isomerase PDI): 1.14
- fold change vs vehicle control (protein LMJF.[…] […] EXOPOLYPHOSPHATASE, PUTATIVE): 1.19
